How the values were obtained:
Assay type in all cases: in vivo, swine
gilts [1] = assay: Example 1: ovulation monitoring by transrectal ultrasonography after 200 mcg triptorelin gel intravaginally at 96, 120 or 144 h after MATRIX withdrawal; conditions: raw averages, PTK 1-07 (rep 3), 200 mcg T
Method: (§1) All gilts were individually fed MATRIX® as a top-dress for 14 days at the recommended rate of 15 mg/gilt/day. Gilts were withdrawn from MATRIX® feeding (last top feed in the morning on Day 0) and allotted to treatments. Controls were treated with a 1.2% methylcellulose gel formulation without triptorelin at 96 hours following MATRIX® withdrawal (last top-dress). The remaining gilts received 200 mcg triptorelin, as the acetate, in a 1.2% methylcellulose gel formulation intravaginally at various times after MATRIX® withdrawal. The four treatments were: 1) vehicle gel (VG) treatment at 96 hours after MATRIX® withdrawal, 2) triptorelin gel (TG) treatment at 96 hours after MATRIX® withdrawal, 3) TG treatment at 120 hours after MATRIX® withdrawal and 4) TG treatment at 144 hours after MATRIX® withdrawal. All gilts were monitored for their estrous and ovulatory status as described below. Gilts included in replicate 1 were selected from terminal line commercial production gilts located in grow/finish barns. Sexual maturity, as indicated by one or more estrous periods, was not verified prior to the start of MATRIX® feeding. Gilts included in replicate 2 were selected from a maternal line gilt population. Sexual maturity was verified by at least one estrous period verified and recorded prior to starting MATRIX® feeding.
The ovulatory status of all gilts was monitored by transrectal ultrasonography. For replicate one, ovulation was monitored two times on Day 5, then three times a day from Day 6 to Day 8. For replicate two, ovulation was monitored three times a day from Day 5 to Day 8. An Aloka 500 ultrasound machine with a 7.5 MHz linear array transducer attached to a fixed-angle PVC stabilizing rod to facilitate insertion into the rectum was used for this purpose. The transducer and PVC rod were coated with a gynecological lubricant and gently inserted into the rectum until the ovaries were visualized, one at a time. The diameters of the three largest follicles were recorded (to the nearest 0.1 mm) at each scanning. A gilt was declared to have ovulated when the number of large follicles (≥6.5 mm) fell to less than 3.
(§2) A single 2 mL dose of triptorelin gel or vehicle gel was deposited within approximately 1-2 cm posterior to the cervix with a catheter similar to those used for artificial insemination. The dose was delivered using a standard multi-dose applicator attached to the catheter. A new disposable sheath, which surrounds the catheter, was used for each gilt.
Data were analyzed using the Mixed Models procedures of SAS. Models included main effects of time of treatment following the last feeding of MATRIX®, replicate, and treatment by replicate interaction. Differences between treatments were tested on least squares means estimates using the T test at P<0.05. Data for analysis were tested for assumptions of data normality.

gilts [2] = assay: Example 1: estrus observation (boar exposure, back pressure) after triptorelin gel; conditions: raw averages; PTK 1-07 (rep 3); 200 mcg T at 120 h
Method: as §1
For post-treatment estrus detection, gilts were housed in individual pens. […]

serum LH = assay: Example 5: blood collection and serum LH analysis (LH surge); conditions: for Gilts, which displayed a LH surge: number of gilts
Method: A catheter was inserted non-surgically into the jugular vein (Kraeling et al. 1982) of a subpopulation of gilts in each treatment group (vehicle gel, n=8; 100 mcg triptorelin, n=6; 200 mcg triptorelin, n=7 and 400 mcg triptorelin, n=6). Ten mL blood samples were collected every 15 minutes for one hour prior to treatment, immediately following treatment (0) and at 0.5, 1, 2, 4, 6, 12, 18, 24, 36 and 48 hours after treatment. Blood samples were maintained at 4° C. until centrifuged at 800×g for 15 minutes within 12 hours of collection. The resulting serum was stored frozen until assayed for LH using validated procedures for pig serum (Kesner et al., 1987 and Kraeling et al., 1982). Onset, duration, and magnitude of the LH surge were analyzed. The LH data were analyzed with the General Linear Models procedure of SAS. Differences between treatments were tested on least squares means estimates using the T test at P<0.05. Onset of the LH surge is when serum LH concentration is greater than or equal to two standard deviations of the mean of the pre-treatment serum LH concentrations. Duration of the LH surge is the period between onset and when serum LH concentration is again less than or equal to two standard deviations of the mean of the pre-treatment serum LH concentrations. Magnitude of the LH surge is the maximum serum LH concentration reached during the LH surge.

gilts [3] = assay: Example 5: ovulation monitoring by transrectal ultrasonography after 100, 200 or 400 mcg triptorelin gel at 120 h after MATRIX withdrawal; conditions: for Percentage ovulated by 48 hours: catheterized subpopulation; for % of Sows Ovulating: raw averages, PTK 2-07
Method: All gilts were individually fed MATRIX® as a top-dress for 14 or 15 days at the recommended rate of 15 mg/gilt/day. Gilts were withdrawn from MATRIX® feeding (last top-dress in the morning on Day 0) and allocated to each of the following treatments. Controls were vehicle gel treated (vehicle gel without triptorelin) at 120 (+/−2) hours following MATRIX® withdrawal (last top dress). The other gilts were given 100, 200 or 400 mcg triptorelin as the acetate in a methylcellulose gel formulation 120 (+/−2) hours following MATRIX® withdrawal. The four treatments were:
1. Vehicle gel (VG): vehicle gel without triptorelin at 120 (+/−2) hours after MATRIX® withdrawal.
2. TG 100: 100 mcg (2 mL 50 mcg/mL) triptorelin gel at 120 (+/−2) hours after MATRIX® withdrawal.
3. TG 200: 200 mcg (2 mL 100 mcg/mL) triptorelin gel at 120 (+/−2) hours after MATRIX® withdrawal.
4. TG 400: 400 mcg (2 mL 200 mcg/mL) triptorelin gel at 120 (+/−2) hours after MATRIX® withdrawal.
Ovulation was monitored twice on Day 5 (8 hours and 16 hours post-treatment) and every 8 hours on Day 6 and Day 7 or until ovulation was confirmed or 176 hours following last MATRIX® feeding. The ovulatory status of all gilts was monitored by transrectal ultrasonography. An Aloka 500 ultrasound machine is used for this purpose, with a 7.5 MHz linear array transducer attached to a fixed-angle PVC stabilizing rod to facilitate insertion into the rectum. The transducer and PVC rod are coated with a gynecological lubricant and gently inserted into the rectum until the ovaries can be visualized, one at a time. The diameters of the three largest follicles were recorded (to the nearest 0.1 mm) at each scanning. A gilt was declared to have ovulated when the number of large follicles 6.5 mm) fell to less than 3.
as §2

gilts [4] = assay: Example 5: estrus observation; conditions: raw averages, PTK 2-07
Method: For post-treatment estrus detection, gilts were housed in individual pens. Boars were housed in separate rooms, and/or at least 12 m away and downwind. To elicit signs of estrus, a mature boar was walked slowly in the alley in front of the gilts' crates, exposing each test gilt to visual, auditory and olfactory signals from the boar for up to 5 minutes. In keeping with standard practice at commercial farms, while the boar was near the front of the gilt's crate, estrus was tested by an experienced person applying back pressure to the midsection of the gilt combined with side rubbing. Estrus was confirmed when a gilt stood rigidly to the back pressure, with no vocalization and with some indication of an ear reflex. Gilts were not exposed to boars during the first three days after withdrawal of MATRIX® (Day 0 to Day 2). Estrus detection was performed daily on all gilts from Day 3 to Day 7.

[5] = relative to time of triptorelin gel treatment, 200 mcg T

CC(C)C[C@H](NC(=O)[C@@H](Cc1c[nH]c2ccccc12)NC(=O)[C@H](Cc1ccc(O)cc1)NC(=O)[C@H](CO)NC(=O)[C@H](Cc1c[nH]c2ccccc12)NC(=O)[C@H](Cc1c[nH]cn1)NC(=O)[C@@H]1CCC(=O)N1)C(=O)N[C@@H](CCCNC(=N)N)C(=O)N1CCC[C@H]1C(=O)NCC(N)=O [T, pGlu-His-Trp-Ser-Tyr-D-Trp-Leu-Arg-Pro-Gly-NH2]
% of Sows Ovulating (gilts [1]; 128 h post-MATRIX, 8 h post-T): 0.0% | % of Sows Ovulating (gilts [1]; 136 h post-MATRIX, 16 h post-T): 10.0% | % of Sows Ovulating (gilts [1]; 144 h post-MATRIX, 24 h post-T): 30.0% | % of Sows Ovulating (gilts [1]; 152 h post-MATRIX, 32 h post-T): 70.0% | % of Sows Ovulating (gilts [1]; 160 h post-MATRIX, 40 h post-T): 80.0% | % of Sows Ovulating (gilts [1]; 168 h post-MATRIX, 48 h post-T): 90.0% | % of Sows Ovulating (gilts [1]; 176 h post-MATRIX, 56 h post-T): 100.0% | Estrous Expression (%) (gilts [2]): 100.0% | Duration of LH surge (serum LH; 200 mcg T): 18 | Onset of LH surge (serum LH; LS mean ± SE, relative to time of triptorelin gel treatment, 100 mcg T): 4 ± 3 | Onset of LH surge (serum LH; LS mean ± SE, relative to time of triptorelin gel treatment, 400 mcg T): 4 ± 4 | Gilts, which displayed a LH surge (serum LH; 100 mcg T (n = 6)): 4 | Gilts, which displayed a LH surge (serum LH; 200 mcg T (n = 7)): 1 | Gilts, which displayed a LH surge (serum LH; 400 mcg T (n = 6)): 5 | Onset of LH surge (serum LH; [5]): 0.5 | Time of maximum LH conc. (serum LH; [5]): 4 h | Percentage ovulated by 48 hours (gilts [3]; 100 mcg T (n = 6)): 100% | Percentage ovulated by 48 hours (gilts [3]; 200 mcg T (n = 7)): 100% | Percentage ovulated by 48 hours (gilts [3]; 400 mcg T (n = 6)): 100% | % of Sows Ovulating (gilts [3]; 100 mcg T, 128 h post-MATRIX, 8 h post-T): 0.0% | % of Sows Ovulating (gilts [3]; 100 mcg T, 136 h post-MATRIX, 16 h post-T): 5.0% | % of Sows Ovulating (gilts [3]; 100 mcg T, 144 h post-MATRIX, 24 h post-T): 20.0% | % of Sows Ovulating (gilts [3]; 100 mcg T, 152 h post-MATRIX, 32 h post-T): 30.0% | % of Sows Ovulating (gilts [3]; 100 mcg T, 160 h post-MATRIX, 40 h post-T): 60.0% | % of Sows Ovulating (gilts [3]; 100 mcg T, 168 h post-MATRIX, 48 h post-T): 95.0% | % of Sows Ovulating (gilts [3]; 100 mcg T, 176 h post-MATRIX, 56 h post-T): 100.0% | % of Sows Ovulating (gilts [3]; 200 mcg T, 128 h post-MATRIX, 8 h post-T): 0.0% | % of Sows Ovulating (gilts [3]; 200 mcg T, 136 h post-MATRIX, 16 h post-T): 0.0% | % of Sows Ovulating (gilts [3]; 400 mcg T, 128 h post-MATRIX, 8 h post-T): 4.5% | % of Sows Ovulating (gilts [3]; 400 mcg T, 136 h post-MATRIX, 16 h post-T): 9.1% | % of Sows Ovulating (gilts [3]; 400 mcg T, 168 h post-MATRIX, 48 h post-T): 100.0% | % of Sows Ovulating (gilts [3]; 400 mcg T, 176 h post-MATRIX, 56 h post-T): 100.0% | Estrous Expression (%) (gilts [4]; 100 mcg T at 120 h): 75.0% | Estrous Expression (%) (gilts [4]; 200 mcg T at 120 h): 81.0%

Reference: US20180133283A1, “METHOD AND COMPOSITIONS FOR SYNCHRONIZING TIME OF INSEMINATION IN GILTS” (JBS UNITED ANIMAL HEALTH II LLC, priority 2012, published 2018)
